Consider one compound from publication PMC10563062 (2023).

The test system of the experiment is d(AAGGG)4 (DNA, G4) AAGGGAAGGGAAGGGAAGGG
As to the kind of experiment: UV-vis absorption titration (Soret band); CD. The following applies: 100 mM KCl; 10 mM Tris-HCl, 0.1 mM EDTA, pH 7.4; 7 μM TMPyP4; 68% hypochromicity, 16 nm red shift.

For `C[n+]1ccc(-c2c3nc(c(-c4cc[n+](C)cc4)c4ccc([nH]4)c(-c4cc[n+](C)cc4)c4nc(c(-c5cc[n+](C)cc5)c5ccc2[nH]5)C=C4)C=C3)cc1`, the binding entry is recorded as “yes”.
